The results in this text go back to patent EP1369114A1, “Use of tryptophan metabolites as pharmaceutical agents” (Terness, Peter, Priv. Doz. Dr., priority 2002, dated 2003).

For assay [1], the system named is T cells. Description: Detection of cell death: 7-AAD staining of anti-CD3 stimulated lymphocytes, FACScan. The format is cell-based, human. The following applies: anti-CD3, 3 days; 1501 µM kynurenine, 349µM 3-hydroxykynurenine, 510µM 3-hydroxyanthranilic acid, mixture 64 µM of each compound. As for the experimental part:
Lymphocytes were stimulated in culture with anti-CD3 monoclonal antibody (s. above) in the presence or absence (control) of kynurenine (1501µM), 3-hydroxyanthranilic acid (510µM), 3-hydroxykynurenine (348µM), or metabolite mixture (64µM kynurenine + 64µM 3-hydroxykynurenine + 64µM anthranilic acid + 64µM 3-hydroxyanthranilic acid + […] quinolinic acid). After 3 days the cells were washed and resuspended in PBS (10^6/ml). Thereafter, the cells (100µ1 suspension) were labeled with anti-CD3-FITC antibody (3 µl), stained with 7-AAD (5µl) for 15 min, and the percentage of 7-AAD-positive (dead) T cells was determined in a FACScan. In an other experiment T cells, B cells, NK-cells, or DCs were separated from PBMCs by magnetic beads or generated as described, and cultured (5x10^5 cells/ml) with a mixture of kynurenine metabolites (kynurenine + 3-hydroxykynurenine + anthranilic acid + 3-hydroxyanthranilic acid + quinolinic acid)(8, 16, or 32µM respectively for each compound). In one setting T cells were activated with anti-CD3 antibody. Cell death was measured daily for 5 days by 7-AAD staining and expressed in percentage of dead cells.

Assay [2] concerns CD3-stimulated T cells. The assay can be described thus: CD3 stimulation of T cells: metabolite titration curves, 3[H]-thymidin incorporation. The following applies: anti-CD3 antibody, 3 days. The format is cell-based, human. From the text:
• (a) Allogeneic T-cell response. DCs were infected with recombinant IDO-adeno-GFP (DC-IDO-GFP), IDO-adeno (DC-IDO) or with control adenoviruses (DC-adeno) at a MOI (multiplicity of infection) up to 500 for 2 days. Lymphocytes (PBMCs) were separated from peripheral blood of healthy donors by density gradient centrifugation and typed for HLA antigens. Only HLA-DR-different responder lymphocytes were used for DC-induced stimulation. Native DCs only, lymphocytes only, native DCs + allogeneic lymphocytes, DC-IDO-GFP + allogeneic lymphoytes, DC-IDO + allogeneic lymphoytes, DC-adeno + allogeneic lymphocytes (each time 10^5 DC + 10^5 lymphocytes in 0.2ml medium) were cultured in RPMI 1640 medium (Gibco BRL Life Technologies GmbH, Eggenstein, Germany) with 10% fetal calf serum (FCS) (final tryptophan concentration 5.25 mg/l = 25.69 uM) and Penicillin G/Streptomycin. […] In order to verify whether IDO expression or adenovirus infection harm the DCs, 10^5 cells were infected with IDO-adeno-GFP, IDO-adenovirus, or adenovirus only at a stepwise decreasing MOI (500, 250, 125, ........ 3.9) and cell viability was measured in FACS following double staining with 7-AAD and anti-CD83 antibody-PE. The percentage of dead cells never exceeded 30% for any MOI following IDO-adeno-GFP- or IDO-adeno-infection and 40% following adenovirus(control)-infection. Moreover, these values were not higher than those of native DCs cultured for the same period of time. The experiment was repeated using ethidium bromide or trypan blue staining with virtually the same result. […] Peripheral blood lymphocytes were cultured (10^5 cells/well) in RPMI 1640 (10% FCS) with anti CD3 monoclonal antibody (Ortho Diagnostic Systems Inc., Raritan, NJ) (final dilution 1:200). […] Kynurenine, 3-hydroxykynurenine, anthranilic acid, 3-hydroxyanthranilic acid, and quinolinic acid (Sigma-Aldrich Chemie GmbH, Taufkirchen, Germany)(for all substances purity>98%) were dissolved in RPMI 1640 and added to cell cultures at various concentrations. In an other experiment, to determine whether the metabolites have an additive effect, equal concentrations of the compounds were mixed and added to the cultures. […] Positive controls consisted of CD3-stimulated cells without metabolites and negative controls of unstimulated cells. • (d) Restimulation of suppressed T cells. Lymphocytes (10^5 cells/well) were cultured in RPMI 1640 (10% FCS) with anti-CD3 monoclonal antibody (final dilution 1:200) and kynurenine (dilution series). […] Controls consisted of cells prestimulated with anti-CD3 but not pretreated with kynurenine. In an other restimulation experiment lymphocytes were stimulated with allogeneic DCs as described, in the presence (47-1500µM) or absence of kynurenine. Control cultures contained DCs or lymphocytes only. After 5 days the cells were extensively washed, and restimulated with an identical number of DCs derived from the same donor or from third party donors. […] In order to define the concentration of tryptophan which reduces T- lymphocyte proliferation in our test system, 10^5 lymphocytes were incubated in tryptophan-free RPMI 1640 medium (Gibco BRL Life Technologies) with or without 10% FCS, stimulated with anti-CD3 monoclonal antibody, and various amounts (0-38µM) of tryptophan were added. Unimpaired proliferation was observed down to 0.30µM (medium with FCS) and 1 .20µM (without FCS). Complete inhibition was not obtained at any concentration (positive control 100% proliferation; maximal suppression in medium with FCS: approx. 66% and without FCS: approx. 33%). All cell cultures were done in triplicate.
All tests were carried out in triplicate and results are given as mean +standard deviation. […] Thereafter, the concentration of substance giving 50% proliferation was calculated by regression.

With `Nc1c(O)cccc1C(=O)CC(N)C(=O)O` (stereo not drawn) [3-hydroxykynurenine], the “dead (7-AAD-positive) T cells (in words)” value in assay [1] was “virtually all cells died”. Moreover, the IC50 in assay [2] (Homo sapiens, T-cell, 72 h, single substance, read-out: I50 of proliferation of CD3-stimulated T cells) was found to be 187 µM. Besides, in assay [2], the “suppression of T cell response (in words)” value was “strongly suppress T cells”.
